Measured values reported in US4015974A, “Amido phosphorothiolates” (priority 1972, dated 1977).
≈ marks a conversion by molar mass, not a printed value.

Tests used:
Type in all cases: in vivo
[1] = tested on: tobacco cut worm (Spodoptera litura); assay: Field test, tobacco cut worm on cabbage (Table 8); conditions: 3% dust, 5 kg./10 a., after 7 days, on 20 cabbages
From the text: (§1) A 3% dust of each compound of the present invention was applied, in a proportion of 5 kg./10 a., to the field of cabbage where a large number of tobacco cut worm and diamond-back moth were generated, After 7 days, 20 cabbages were pulled out and the number of insects thereon were checked.

[2] = tested on: diamond-back moth (Plutella maculipennis); assay: Field test, diamond-back moth on cabbage (Table 8); conditions: 3% dust, 5 kg./10 a., after 7 days, on 20 cabbages
From the text: as §1

[3] = tested on: redroot pigweed (Amaranthus retroflexus); assay: Pre-emergence application, herbicidal effect on redroot pigweed (Table 1); design: key: 0: not damaged; 5: completely killed; conditions: 20 days after application, score 0-5
In short: (§2)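 Pre-emergence soil treatment: seeds sown in pots of about 10 cm and covered with soil, then compounds applied as wettable powder diluted in water. Plants grown in a greenhouse; damage scored 20 days after application from 0 (not damaged) to 5 (completely killed).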

[4] = tested on: large crabgrass (Digitaria sanguinalis); assay: Pre-emergence application, herbicidal effect on large crabgrass (Table 1); design: key: 0: not damaged; 5: completely killed; conditions: 20 days after application, score 0-5
In short: as §2

[5] = tested on: common lambsquarter (Chenopodium album); assay: Pre-emergence application, herbicidal effect on common lambsquarter (Table 1); design: key: 0: not damaged; 5: completely killed; conditions: 20 days after application, score 0-5
In short: as §2

[6] = tested on: barnyard grass (Echinochloa crus-galli); assay: Water application, herbicidal effect on barnyard grass (Table 2); design: key: 0: not damaged; 5: completely killed; conditions: 25 days, score 0-5
In short: (§3)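 Flooded paddy-soil pots with 3-leaf-stage transplanted rice and sown barnyard grass; wettable-powder compounds applied to soil under water. Herbicidal effect and rice phytotoxicity, also on spontaneously germinated broad-leaved weeds, scored 0–5 at 25 days after application.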

[7] = tested on: carmine mite (Tetranychus telarius); assay: Lethal effect on carmine mite, degree of damage on kidney beans (Table 4); design: key: -: damage is hardly increased.; +: damage is slightly increased.; ++: damage is fairly increased.; +++: damage is heavily increased; conditions: 25% wettable powder, 200 fold dilute solution, another week after application
From the text: About 50 carmine mite adults were made parasitic on leaves of potted kidney beans at a 2-leaves stage which had elapsed 10 days after swing. After a week, the present compounds of a 25% wettable powder type were each applied in the form of a 200 fold dilute solution.

nematode = assay: Effect on nematode (Table 7); design: tested at 500 ppm; conditions: 500 p.p.m., 24 hours
Description: 0.5 ml. of a nematode-containing aqueous solution separated from food according to Baermann's method was placed in a test tube with ground stopper containing 0.5 ml. of an aqueous dilute solution of each emulsifiable concentrates of the present compounds. The concentration of the active ingredient in the mixture was adjusted to 500 p.p.m. After 24 hours, the death and alive were observed microscopically to calculate the mortality.

[8] = tested on: tobacco cut worm (Spondoptera litura); assay: Lethal effect on tobacco cut worm (Table 5); conditions: tobacco cutworm, larvae on chinese cabbage leaves, 48 h
Description: The present compounds of an emulsifiable concentrate type were applied to leaves of chinese cabbage in the form of an 1000 fold dilute solution. After air-drying, third to fourth instar larvae of tobacco cut worm were released and after 48 hours the death and alive were observed.

[9] = tested on: common purslane (Portulaca oleracea); assay: Pre-emergence application, herbicidal effect on common purslane (Table 1); design: key: 0: not damaged; 5: completely killed; conditions: 20 days after application, score 0-5
In short: as §2

radish = assay: Pre-emergence application, herbicidal effect on radish (Table 1); design: key: 0: not damaged; 5: completely killed; conditions: 20 days after application, score 0-5
In short: as §2

[10] = tested on: broad-leaved weeds, e.g., monochoria, false pimpernel and toothcup; assay: Water application, herbicidal effect on broad-leaved weeds (Table 2); design: key: 0: not damaged; 5: completely killed; conditions: 25 days, score 0-5
In short: as §3

rice = assay: Water application, phytotoxicity on rice (Table 2); design: key: 0: no effect; 1: very slightly affected; 2: slightly affected; 3: moderately affected; 4: considerably affected; 5: completely killed; conditions: 25 days, score 0-5
In short: as §3

[11] = tested on: barnyard grass (Echinochloa crus-galli); assay: Pre-emergence application, herbicidal effect on barnyard grass (Table 1); design: key: 0: not damaged; 5: completely killed; conditions: 20 days after application, score 0-5
In short: as §2

[12] = tested on: rice stem borer (Chilo suppressalis); assay: Lethal effect on rice stem borer (Table 6); conditions: 50 % emulsifiable concentrate, 1000 fold dilute solution, 4 days after application
From the text: Eggs just before hatch of the rice stem borer were applied in a ratio of 100/pot near the root of rice plants grown up into the tillering stage in an […] Wagner's pot. After eggs were hatched and the larvae entered into stems of rice plants, an 1000 fold dilute solution of each 50 % emulsifiable concentrates of the present compounds was applied by means of a turn table.

[13] = tested on: carmine mite (Tetranychus telavius); assay: Lethal effect on carmine mite, leaf dipping (Table 3); conditions: foliar, 48 h
Description: A large number of carmine mite adult were made parasitic on leaves of potted kidney beans at a 2-leaves stage which had elapsed 10 days after sowing. The leaves of kidney bean on which carmine mites had been made parasitic were dipped for 1 minute in each aqueous solution of the present compounds of wettable powder type. Water was given to the leaves not to kill them, and after 48 hours the death and alive were observed microscopically to calculate the mortality. Values of LC50 were obtained from the mortality.

SMILES	Herbicidal effect, redroot pigweed ([3]; 10 g./a.)	Herbicidal effect, redroot pigweed ([3]; 20 g./a.)	Herbicidal effect, redroot pigweed ([3]; 40 g./a.)	Herbicidal effect, large crabgrass ([4]; 10 g./a.)	Herbicidal effect, large crabgrass ([4]; 20 g./a.)	Herbicidal effect, large crabgrass ([4]; 40 g./a.)	Herbicidal effect, common lambsquarter ([5]; 10 g./a.)	Herbicidal effect, common lambsquarter ([5]; 20 g./a.)	Herbicidal effect, common lambsquarter ([5]; 40 g./a.)	Herbicidal effects, barnyard grass ([6]; 10 g/a)	Herbicidal effects, barnyard grass ([6]; 20 g/a)	Herbicidal effects, barnyard grass ([6]; 40 g/a)	Degree of damage [7]	Mortality (nematode) [%]	Mortality [8] [%]	Herbicidal effect, common purslane ([9]; 10 g./a.)	Herbicidal effect, common purslane ([9]; 20 g./a.)	Herbicidal effect, common purslane ([9]; 40 g./a.)	Herbicidal effect, radish (radish; 10 g./a.)	Herbicidal effect, radish (radish; 20 g./a.)	also measured
COP(=O)(OC)C(O)C(Cl)(Cl)Cl (stereo not shown) [Bipterex, reference compound]																					Number of insects, tobacco cut worm [1]: 19; Number of insects, diamond-back moth [2]: 49
CCOP(=O)(SCC(=O)N1CCCCC1C)SCc1ccc(Cl)cc1 (stereo not drawn) [Compound 49, O-ethyl-S-(4-chlorobenzyl)-S-(2-methylpiperidinocarbamoylmethyl)phosphorodithiolate]	3	4	5	5	5	5	4	4	5	5	5	5	-	100	75.0	3	4	5	0	0	Herbicidal effect, radish (radish; 40 g./a.): 0; Herbicidal effects, broad-leaved weeds ([10]; 10 g/a): 5; Herbicidal effects, broad-leaved weeds ([10]; 20 g/a): 5; Herbicidal effects, broad-leaved weeds ([10]; 40 g/a): 5; Phytotoxicity on rice (rice; 10 g/a): 0; Phytotoxicity on rice (rice; 20 g/a): 0; Phytotoxicity on rice (rice; 40 g/a): 1; Herbicidal effect, barnyard grass ([11]; 10 g./a.): 5; Herbicidal effect, barnyard grass ([11]; 20 g./a.): 5; Herbicidal effect, barnyard grass ([11]; 40 g./a.): 5
CCOP(=O)(SCC(=O)N1CCCCC1C)SC(C)CC (stereo not shown) [Compound 5]	5	5	5	5	5	5	5	5	5	5	5	5		100	70.0	5	5	5	0	0	Herbicidal effect, radish (radish; 40 g./a.): 0; Herbicidal effects, broad-leaved weeds ([10]; 10 g/a): 5; Herbicidal effects, broad-leaved weeds ([10]; 20 g/a): 5; Herbicidal effects, broad-leaved weeds ([10]; 40 g/a): 5; Mortality [12]: 88.9%; LC50 [13]: 7.9 µg/mL (≈ 22.3 µM); Phytotoxicity on rice (rice; 10 g/a): 0; Phytotoxicity on rice (rice; 20 g/a): 0; Phytotoxicity on rice (rice; 40 g/a): 0; Herbicidal effect, barnyard grass ([11]; 10 g./a.): 5; Herbicidal effect, barnyard grass ([11]; 20 g./a.): 5; Herbicidal effect, barnyard grass ([11]; 40 g./a.): 5
CCOP(=O)(SCCc1ccc(Cl)cc1)SCC(=O)N1CCCCC1C (stereo not shown) [Compound 60]													-								
